Legend:
Plasminogen = Plasminogen (Homo sapiens, UniProt P00747); test: Tested for the Inhibition of the catalytic activity of human plasmin at 25 degree C and pH 7.5.
Serine protease 1 = biological target: T1, Serine protease 1 (Bos taurus, UniProt P00760); test: Tested for the Inhibition of the catalytic activity of bovine trypsin at 25 degree C and pH 7.5.
T1 sequence (P00760 whole entry): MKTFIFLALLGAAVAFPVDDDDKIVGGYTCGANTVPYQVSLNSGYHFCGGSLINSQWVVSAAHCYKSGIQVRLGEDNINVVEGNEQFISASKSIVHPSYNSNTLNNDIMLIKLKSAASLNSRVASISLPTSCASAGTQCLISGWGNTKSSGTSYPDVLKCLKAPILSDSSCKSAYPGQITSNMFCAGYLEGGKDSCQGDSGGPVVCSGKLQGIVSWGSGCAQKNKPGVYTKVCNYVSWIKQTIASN

Prothrombin = Prothrombin (Homo sapiens, UniProt P00734)
Description: Tested for the Inhibition of the catalytic activity of human Thrombin at 25 degree C and pH 7.5.

Sequence of Plasminogen (P00747 97-580 limits assumed): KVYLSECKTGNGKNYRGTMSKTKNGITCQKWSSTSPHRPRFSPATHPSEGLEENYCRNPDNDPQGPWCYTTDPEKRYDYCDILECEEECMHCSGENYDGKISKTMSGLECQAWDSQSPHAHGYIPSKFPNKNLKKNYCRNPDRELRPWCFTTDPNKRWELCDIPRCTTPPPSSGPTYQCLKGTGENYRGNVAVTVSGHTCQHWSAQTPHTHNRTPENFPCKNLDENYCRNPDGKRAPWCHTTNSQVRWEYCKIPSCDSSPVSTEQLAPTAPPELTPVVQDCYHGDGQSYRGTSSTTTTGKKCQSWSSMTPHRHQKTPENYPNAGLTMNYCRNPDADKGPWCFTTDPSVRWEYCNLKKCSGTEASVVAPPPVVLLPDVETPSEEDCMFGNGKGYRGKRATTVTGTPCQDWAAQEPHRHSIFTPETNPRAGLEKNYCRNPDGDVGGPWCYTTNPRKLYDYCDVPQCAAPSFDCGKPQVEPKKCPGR
Sequence of Plasminogen (P00747 581-810 limits assumed): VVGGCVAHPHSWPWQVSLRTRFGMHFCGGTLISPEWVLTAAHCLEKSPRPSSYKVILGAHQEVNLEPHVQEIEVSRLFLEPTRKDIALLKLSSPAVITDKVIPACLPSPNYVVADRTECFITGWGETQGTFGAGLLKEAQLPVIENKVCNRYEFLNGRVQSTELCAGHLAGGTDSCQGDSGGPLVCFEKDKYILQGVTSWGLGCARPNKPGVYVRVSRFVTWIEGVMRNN

Structure (SMILES) | Ki (Plasminogen) [µM] | Ki (Serine protease 1) [µM] | Ki (Prothrombin) [µM]
Nc1ccncc1 [DALFAMPRIDINE] | > 2000 | > 2000 | > 2000
Cc1cccc(OCCNc2ccncc2)c1 | > 500 | > 500 | 30
O=C(CNS(=O)(=O)c1ccc2ccccc2c1)N[C@H](CCNc1ccncc1)C(=O)N1CCCCC1 | > 500 | > 500 | 0.2
O=S(=O)(Nc1cccc(OCCNc2ccncc2)c1)c1ccc(Cl)cc1 | > 500 | > 500 | 0.7
O=S(=O)(Nc1cccc(OCCNc2ccncc2)c1)c1ccccc1 | > 500 | > 500 | 0.3
O=C(CNS(=O)(=O)c1ccc2ccccc2c1)N[C@@H](CCNc1ccncc1)C(=O)N1CCCCC1 | > 500 | > 500 | 300
O=S(=O)(NCCc1cccc(OCCNc2ccncc2)c1)c1ccc(Cl)cc1 | > 500 | > 500 | 2.8

Further lines, results first:

Ki (Plasminogen) [µM] | Ki (Serine protease 1) [µM] | Ki (Prothrombin) [µM] | Structure (SMILES)
> 500 | > 500 | 7 | O=S(=O)(Nc1cccc(OCCNc2ccncc2)c1)c1ccc2ccccc2c1
> 500 | > 500 | 120 | c1ccc(OCCNc2ccncc2)cc1
> 500 | > 500 | 2 | O=C(CNS(=O)(=O)c1ccc(Cl)cc1)N[C@H](CCNc1ccncc1)C(=O)N1CCCCC1
34 | 1.7 | 1.5 | N=C(N)c1ccc(COc2cccc(CCNS(=O)(=O)c3ccc(Cl)cc3)c2)cc1
> 500 | > 500 | 0.07 | CN(c1cccc(OCCNc2ccncc2)c1)S(=O)(=O)c1ccccc1
> 500 | > 500 | > 500 | OCCNc1ccncc1
> 500 | > 500 | 10 | O=C(CNS(=O)(=O)c1ccccc1)N[C@H](CCNc1ccncc1)C(=O)N1CCCCC1

Reference: ChEMBL document CHEMBL1150979, “DERIVATIVES OF 4-AMINO-PYRIDINE AS SELECTIVE THROMBIN INHIBITORS” (Bioorg Med Chem Lett, 1997)
